Measured values from US20090012177A1, “Treatment of psychiatric disorders using entacapone, tolcapone and other COMT inhibitor or MB-COMT inhibitor drugs” (priority 2006, published 2009).

Experiments:
[1] = system: patients with SCZ, BD, Major depression and drug dependency; assay: Clinical studies of entacapone in more than 100 patients, evaluated with the CGI scale; format: in vivo, human
Method: This new therapeutic application was determined in patients (Men/women) in single-drug and combination drug therapy. 100 patients were treated at a dose range of 3-10-mg/kg day (50 mg/day-800 mg/day) orally for period of 12 weeks and continued for as long as patients consented averaged 12 months or more.
The drug efficacy was evaluated using the CGI (Clinical Global Impression) scale. This is a simple tool that is clinically understandable, has proven to be a robust measure of efficacy in drug treatment trial and is highly sensitive to change of clinical status.

[2] = system: patient with BD; assay: Illustrative case report: a case of BD; format: in vivo, human; settings: 400 mg/day, follow up
Source text: Married person, a hedge fund investment manager with history of BD who has had temporary partial response to antidepressants but mainly resulting in exacerbation symptoms of anxiety, relapse to a depression or cycling to mania. They were intolerant of atypical antipsychotics with potential antidepressant effect (Ziprasidone, Aripiprazole and Quetiapine) either as mono therapy or combined with Lithium or Lamotrigine. […] They reported oil Lithium their “up and down swings were better” but complained their depression was not resolved and they were not happy. They also complained of lack of motivation, trouble with concentration, getting easily overwhelmed with their job, inability to feel joy, overall lack of interest in everything, not knowing what to do with themself, gave up on all hobbies, feeling being all consumed, excessive day time napping, feeling bored especially when their time would be unstructured on week end, loss of their spontaneity and resorting to procrastination, They went to an exotic vacation in Caribbean with their spouse with the hope to bounce back. But as they reported they were not able to enjoy their vacation, complained feeling “being stuck at the low bottom and strongly believed they would never come out of it”. They had started to do Marijuana with the hope to improve their mood. They were preoccupied with getting a gun and shoots themself. […]

[3] = system: patients with drug dependency; assay: Illustrative case reports: six cases of drug dependency; format: in vivo, human
[4] = in vivo; cited from earlier work
[5] = cited from earlier work
[6] = administered in conjunction; cited from earlier work
[7] = system: rats; settings: cited from earlier work
[8] = system: primates; settings: cited from earlier work
[9] = system: prefrontal cortex functions; settings: subjects with the Val/Val genotype; cited from earlier work

Question: For `CCN(CC)C(=O)/C(C#N)=C/c1cc(O)c(O)c([N+](=O)[O-])c1` [entacapone], which “serious events (physical, neurological or psychiatric adverse effects)” value ([1]; during the study, 50-800 mg per day) is on record?
Answer: no indication of serious events

Question: And the “cases with improved negative and depressive symptoms (CGI scale)” value ([1]; entacapone (Comtan) 50-800 mg per day, more than 100 patients)?
Answer: more than 60%

Question: And the “effect of discontinuation of treatment on clinical condition” value ([1]; in comparison to the pre-treatment status)?
Answer: did not cause any worsening of the clinical condition

Question: What about the “duration of maintained effect in BD” value [2] of the same molecule?
Answer: 12 months

Question: And the “duration of abstinence, Case #2” value ([3]; cocaine and alcohol dependant, relapsed when entacapone stopped)?
Answer: 10 months

Question: And the “duration of sobriety, Case #3” value ([3]; increased to 400 then 600 mg/day)?
Answer: 14 months

Question: What about the “blood brain barrier penetration relative to tolcapone” value [4] of the same molecule?
Answer: half that of about tolcapone

Question: What about the common side effects ([5]; human, in vivo) of the same molecule?
Answer: gastrointestinal problems, including diarrhea, nausea and abdominal pains

Question: What about the “safety profile relative to tolcapone” value ([5]; human, in vivo) of the same molecule?
Answer: much better safety profile

Question: What about the “most frequent undesirable effects” value ([5]; related to increased effects of L-DOPA, beginning of treatment) of the same molecule?
Answer: involuntary movements (dyskinesias)

Question: And the “bioavailability of dopaminergic agents such as L-DOPA” value [6]?
Answer: increases the bioavailability

Question: Which results are given for `Cc1ccc(C(=O)c2cc(O)c(O)c([N+](=O)[O-])c2)cc1` [Tolcapone]?
Answer: extradimensional set shifting performance mediated by prefrontal cortex catecholamines [7]: significantly improved; extradimensional set shifting performance mediated by prefrontal cortex catecholamines [8]: significantly improved; tolerability ([5]; human, in vivo): well tolerated drug with no major side effects; hepatic failure ([5]; reported in Europe in the early years of use): three cases of hepatic failure

Question: For `CC(N)Cc1ccccc1` (stereo not shown) [amphetamine], which “efficiency of prefrontal cortex functions in working memory tasks” value [9] is on record?
Answer: enhanced
